# According to PMC6261607, “Novel high–throughput myofibroblast assays identify agonists with therapeutic potential in pulmonary fibrosis that act via EP2 and EP4 receptors” (PLoS ONE, 2018):
# Where two headings read alike, the source gives them in different places.
# Assays:
# [1] = tested on: normal human lung fibroblasts (NHLF); assay: Impedance measurement of TGF–β1–induced myofibroblast transition (IPQA), standard assay; type: cell-based
# Description: To measure dynamic cell shape and adhesion changes during fibrotic transdifferentiation, NHLF were seeded at a density of 20,000 cells per well in FGM–2 growth medium (Lonza) containing 100 units / ml of penicillin and 100 μg / ml of streptomycin into E–plates with continued impedance signal measurement (xCELLigence system, Roche Applied Science). After overnight growth, the medium was exchanged for FBM (Lonza) supplemented with 100 units / ml of penicillin and 100 μg / ml of streptomycin and 0.1% faf BSA and cells were starved for 32 h. Compound dilution series were added and myofibroblast transition was induced by adding TGF–β1 at a concentration of 5 ng / ml, followed by continued impedance sampling for up to 48 h. For data analysis, impedance raw traces were normalized to the time point of compound addition and the baseline response (DMSO, non–TGF–β1 treated cells) was subtracted. In some cases, impedance values at defined time points were used to generate concentration–response curves to determine compound potency and efficacy using GraphPad Prism software version 7 (GraphPad Software Inc).
# [2] = tested on: α–SMA protein in rat lung myofibroblasts (RLMyoF); assay: MS/MS α–SMA in primary myofibroblasts from fibrotic rat lungs; type: cell-based, Wistar rat; conditions: for IC50: Rattus norvegicus, MS/MS normalized to tubulin
# Description: (§1) Isolation of fibroblasts from the right middle lung lobe of bleomycin–instilled 20–month old Wistar rats. All of the experimental procedures were conducted in accordance with the Swiss animal welfare ordinance and Idorsia Animal Welfare policy on the use of experimental animals. The study was approved by the Basellandschaft Cantonal Veterinary Home Office (license no. 371). On day 0, rats (n = 3) were anesthetized with isoflurane and instilled intra–tracheally with […] of bleomycin sulfate (Baxter) in a volume of 210 μl followed by 210 μl of air to equally distribute the substance in the lung. On day 28, rats were euthanized using isoflurane (5%), exsanguinated and right lung middle lobes (RML) were collected in a sterile culture dish on ice in Dulbecco's Modified Eagle's Medium (DMEM) / F12 (1:1, Thermo Fisher), minced, washed 3 times with DMEM / F12 medium and digested with 0.1% collagenase (Collagenase II–S: Invitrogen) and 15 μg / ml DNase (DNase I, Sigma) in DMEM / F12 medium in a shaking water bath at 37°C for 15 min. Digests were separated by gravity and the supernatant was transferred to a new vial supplemented with 4 volumes of ice–cold starter medium consisting of DMEM / F12 (1:1), 10% (v / v) fetal bovine serum (PAA), 1% (v / v) penicillin / streptomycin 100 U / 100 μg / ml (Thermo Fisher), and insulin / transferrin / sodium selenite (Thermo Fisher). Then, the cell suspension was passed through a cell strainer by centrifugation at 1600 rpm at 4°C for 10 min. The pelleted cells were resuspended in pre–warmed (37°C) starter medium and seeded in a cell culture dish. After 60 minutes, the medium was replaced by new starter medium. After 24 hours, the medium was exchanged for DMEM / F12 to which 10% (v / v) fetal bovine serum and 1% penicillin / streptomycin was added.
# (§2) Surrogate tryptic peptides were chosen for detection of COL1 (COL1A1), α–SMA (ACTA) and tubulin (TBA1A1) and crude synthetic peptides were purchased from Thermo Fischer. After several rounds of optimization following standard workflows, […] (COL1 / COL1A1), […] (α–SMA / ACTA) and […] (tubulin / TBA1A1) were chosen to be appropriate for analysis on the RapidFire™ instrument due to the absence of interfering signals in a standard C–18 reverse phase gradient. […] The specificity of the peptides was the same in rats. LC–MS / MS analysis was performed on a RapidFire™ RF360 system (Agilent Technologies) coupled to an API 5500 (ABSciex) with positive ion electrospray ionization. Samples were aspirated from 96–well plates into a 10–μl sample loop and loaded onto a C8 solid phase extraction (SPE) cartridge, washed for 3 s at a flow rate of 1.25 ml / min of water containing 0.1% (v / v) formic acid. […]
# [3] = tested on: COL1 protein in rat lung myofibroblasts (RLMyoF); assay: MS/MS COL1 in primary myofibroblasts from fibrotic rat lungs; type: cell-based, Wistar rat; conditions: for IC50: Rattus norvegicus, Col1, MS/MS normalized to tubulin
# Description: as §1, §2
# human EP4 receptor = target: T1, human EP4 receptor (Homo sapiens, UniProt P35408); assay: cAMP assay, recombinant HEK–293 cells; type: cell-based; conditions: for Emax: HEK293, HEK–293 expressing human EP4; for EC50: HEK–293 expressing human EP4, 30 min
# T1 construct: expressed in transfected cells; host or cells: HEK-293
# Description: Recombinant HEK–293 cells expressing the human EP2 or EP4 receptors were used to assess cAMP stimulation. Cells were cultivated in DMEM supplemented with Glutamax (Invitrogen) and with 10% heat–inactivated FBS (GE Healthcare), collected with cell dissociation buffer (Invitrogen), and seeded in a 384–well small volume plate (Greiner) in assay buffer (1× HBSS, 20 mM HEPES, 0.2% faf BSA) at a density of 4,000 cells / well and exposed to agonist serially diluted in assay buffer containing IBMX (2 mM). After 30 min at 37°C, cells were lysed, cAMP levels were determined using the homogenous time–resolved fluorescence cAMP dynamic 1 kit (Cisbio) according to the supplier’s recommendation and fluorescence was read with a microplate reader (PHERAstar, BMG Labtech). EC50 values were calculated using the proprietary IC50Studio software (Idorsia Pharmaceuticals Ltd).
# [4] = Fibroblast, 5 ng/ml TGF–β1, compound added with TGF–β1, impedance at t = 20 h post TGF–β1, mean ± SD, read-out: Impedance IC50
# [5] = non–stimulated RLMyoF, 72 h compound
# [6] = Homo sapiens, Fibroblast, 5 ng/ml TGF–β1, t = 20 h, representative experiment of supplementary figure, read-out: IC50 on impedance (curve of a single experiment)
# T1 sequence (P35408 whole entry): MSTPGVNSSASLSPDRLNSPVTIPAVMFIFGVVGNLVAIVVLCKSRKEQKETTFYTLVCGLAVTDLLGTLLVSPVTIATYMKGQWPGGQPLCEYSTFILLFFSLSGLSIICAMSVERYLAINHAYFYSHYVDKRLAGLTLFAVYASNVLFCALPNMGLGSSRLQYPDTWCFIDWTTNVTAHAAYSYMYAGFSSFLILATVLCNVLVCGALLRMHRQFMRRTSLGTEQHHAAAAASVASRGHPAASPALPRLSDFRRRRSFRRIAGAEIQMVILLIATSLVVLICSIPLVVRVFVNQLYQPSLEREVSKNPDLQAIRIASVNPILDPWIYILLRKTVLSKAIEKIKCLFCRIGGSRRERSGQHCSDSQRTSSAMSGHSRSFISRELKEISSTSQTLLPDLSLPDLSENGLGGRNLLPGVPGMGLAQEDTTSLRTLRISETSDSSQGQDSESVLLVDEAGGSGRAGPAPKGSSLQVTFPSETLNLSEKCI
Compound,"IC50 [1, 4]",Emax (human EP4 receptor),"IC50 [1, 6]",further results
CCCCC[C@H](O)/C=C/[C@H]1[C@H](O)CC(=O)[C@@H]1CCCCCCC(=O)O [Alprostadil],0.6 ± 0.1 nM,110%,–,"IC50 [2, 5]: 8450 ± 1610 nM; IC50 [3, 5]: 2380 ± 2730 nM; EC50 (human EP4 receptor): 10 nM"
C[C@]12CC[C@H](O)C[C@H]1CC[C@@H]1[C@@H]2C[C@@H](O)[C@]2(C)[C@@H](C3=CC(=O)OC3)CC[C@]12O [Digoxigenin],250 ± 140 nM,–,154 nM,–
Cc1cccc(-c2[nH]c(CNc3ccccc3F)nc2-c2ccc3ncnn3c2)n1 [EW–7197],47 ± 25 nM,–,–,"IC50 [2, 5]: 68 nM; IC50 [3, 5]: 126 nM"
CC(C)(C)c1ccc(CN(Cc2cccc(OCC(=O)O)c2)S(=O)(=O)c2cccnc2)cc1 [Evatanepag],6.7 ± 3 nM,32%,5 nM,EC50 (human EP4 receptor): > 10000 nM
O=C(CC1NCCCC1O)Cn1cnc2cc(Br)c(Cl)cc2c1=O (centres unmarked) [Halofuginone],96 ± 10 nM,–,26 nM,–
O=C1CC[C@H](/C=C/[C@@H](O)Cc2ccccc2)N1CCCCCCc1nn[nH]n1 [Merck–19a],–,–,–,"IC50 ([1]; 5 ng/ml TGF–β1, compound added with TGF–β1, impedance at t = 20 h post TGF–β1, mean ± SD, read-out: Impedance IC50): 10.4 ± 1.1 nM; effect on α–SMA in differentiated RLMyoF [2, 5]: no effect; effect on COL1 in differentiated RLMyoF [3, 5]: no effect"
COC(=O)c1ccc2c(c1)NC(=O)/C2=C(\Nc1ccc(N(C)C(=O)CN2CCN(C)CC2)cc1)c1ccccc1 [Nintedanib],300 ± 110 nM,–,–,–
"CCCCC[C@H](O)/C=C/[C@H]1[C@H](O)CC(=O)[C@@H]1C/C=C\CCCC(=O)O [PGE2, prostaglandin E2]",0.5 ± 0.1 nM,110%,0.4 nM,–
"TGF–β1: transforming growth factor–β1, stimulus of myofibroblast differentiation",–,–,–,"EC50 of impedance change ([1]; impedance at t = 20 h, mean ± SD, n = 8): 0.03 ± 0.01 ng/mL; α-SMA / tubulin ratio ([2]; RLMyoF, TGF-β1): 1.67; COL1 / tubulin ratio ([3]; RLMyoF, TGF-β1): 0.36"
